Experimental data published in US6936636B2, “5-[phenyl-tetrahydronaphthalene-2-yl dihydronaphthalen-2-yl and heteroaryl-cyclopropyl]-pentadienoic acid derivatives having serum glucose reducing activity” (Allergan, Inc., priority 2003, dated 2005).
pEC50, pKi: −log10 of the molar value.

Key:
RXRβ [1] = biological target: T1, RXRβ (Homo sapiens, UniProt P28702); test: RXR ligand binding assay
T1 construct: expressed in transfected cells
T1 sequence (P28702 1-533): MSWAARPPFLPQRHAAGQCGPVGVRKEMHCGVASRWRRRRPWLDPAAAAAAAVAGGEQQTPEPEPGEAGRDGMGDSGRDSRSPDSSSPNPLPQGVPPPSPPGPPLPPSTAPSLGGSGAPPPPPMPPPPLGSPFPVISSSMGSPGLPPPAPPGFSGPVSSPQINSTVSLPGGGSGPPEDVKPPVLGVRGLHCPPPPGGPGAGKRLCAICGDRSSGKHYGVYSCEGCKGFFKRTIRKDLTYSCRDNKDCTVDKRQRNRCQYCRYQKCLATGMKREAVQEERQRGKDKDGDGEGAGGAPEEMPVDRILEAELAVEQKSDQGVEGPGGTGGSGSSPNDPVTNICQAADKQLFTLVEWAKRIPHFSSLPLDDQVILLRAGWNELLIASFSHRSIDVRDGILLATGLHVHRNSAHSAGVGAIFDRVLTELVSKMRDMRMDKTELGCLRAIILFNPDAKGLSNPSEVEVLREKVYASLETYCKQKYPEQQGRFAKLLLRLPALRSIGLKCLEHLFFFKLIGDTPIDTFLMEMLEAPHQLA
Source text: (§1) A holoreceptor transactivation assay and a ligand binding assay which measure the antagonist/agonist like activity of the compounds of the invention, or their ability to bind to the several retinoid receptor subtypes, respectively, are described in published PCT Application No. WO WO93/11755 (particularly on pages 30-33 and 37-41) published on Jun. 24, 1993, the specification of which is also incorporated herein by reference. A detailed experimental procedure for holoreceptor transactivations has been described by Heyman et al. Cell 68, 397-406, (1992); Allegretto et al. J. Biol. Chem. 268, 26625-26633, and Mangelsdorf et al. The Retinoids: Biology, Chemistry and Medicine, pp 319-349, Raven Press Ltd., New York, which are expressly incorporated herein by reference. The results obtained in this assay are expressed in EC50 numbers, as they are also in the, chimeric receptor transactivation assay. The results of the ligand binding assay are expressed in Ki numbers. (See Cheng et al. Biochemical Pharmacology Vol. 22 pp 3099-3108, expressly incorporated herein by reference.)
(§2) In Tables 1 and 2 the binding Ki numbers are indicated in the first 3 columns. In the second set of three columns the numbers in parentheses indicate efficacy as a percentage compared to the standard compound, (2E, 4E, 1′S, 2′S)-3-methyl-5-[2′-methyl-2′-(5,5,8,8-tetramethyl-5,6,7,8-tetrahydro-naphthalen-2-yl)-cyclopropyl]-penta-2,4-dienoic acid and the other numbers indicate the measured EC50 in nanomolar concentration.

RXRα [2] = biological target: T2, RXRα (Homo sapiens, UniProt P19793); test: RXR ligand binding assay
T2 construct: expressed in transfected cells
T2 sequence (P19793 1-462): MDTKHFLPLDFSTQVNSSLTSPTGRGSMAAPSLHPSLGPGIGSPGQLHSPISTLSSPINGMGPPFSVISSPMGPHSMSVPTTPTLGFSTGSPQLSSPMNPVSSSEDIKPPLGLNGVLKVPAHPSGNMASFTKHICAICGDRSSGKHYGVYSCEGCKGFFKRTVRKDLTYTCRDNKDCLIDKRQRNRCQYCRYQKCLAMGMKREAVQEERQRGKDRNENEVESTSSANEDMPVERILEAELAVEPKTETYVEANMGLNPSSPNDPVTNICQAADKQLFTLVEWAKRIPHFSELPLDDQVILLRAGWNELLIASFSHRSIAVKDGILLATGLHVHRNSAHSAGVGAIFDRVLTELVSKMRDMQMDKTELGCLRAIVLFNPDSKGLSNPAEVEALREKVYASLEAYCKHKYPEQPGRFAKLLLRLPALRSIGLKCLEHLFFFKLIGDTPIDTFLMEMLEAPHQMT
Source text: as §1, §2

RXRγ = biological target: T3, RXRγ (Homo sapiens, UniProt P48443); test: holoreceptor transactivation assay; type: cell-based; settings: for Transactivation % Efficiency RXRγ: efficacy as percentage compared to the standard compound; for pEC50: holoreceptor assay
T3 construct: expressed in transfected cells
T3 sequence (P48443 1-463): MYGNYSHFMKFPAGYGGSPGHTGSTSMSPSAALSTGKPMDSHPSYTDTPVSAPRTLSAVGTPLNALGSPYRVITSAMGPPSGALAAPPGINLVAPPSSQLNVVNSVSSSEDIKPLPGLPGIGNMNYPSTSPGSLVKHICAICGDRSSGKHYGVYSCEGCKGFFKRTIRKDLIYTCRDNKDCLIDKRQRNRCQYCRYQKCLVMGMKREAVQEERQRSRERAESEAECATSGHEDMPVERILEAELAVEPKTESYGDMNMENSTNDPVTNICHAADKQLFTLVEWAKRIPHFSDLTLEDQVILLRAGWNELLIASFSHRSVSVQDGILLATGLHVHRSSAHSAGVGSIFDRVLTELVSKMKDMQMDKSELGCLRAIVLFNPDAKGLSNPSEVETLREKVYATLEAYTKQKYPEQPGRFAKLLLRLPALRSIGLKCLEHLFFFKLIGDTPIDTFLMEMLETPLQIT
Source text: as §1
(§3) Efficacy in a transactivation assay is expressed as a percentage of the maximum potency attained by the compound compared to a standard which, in this, case, is the compound named (2E, 4E, 1′S, 2′S)-3-methyl-5-[2′-methyl-2′-(5,5,8,8-tetramethyl-5,6,7,8-tetrahydro-naphthalen-2-yl)-cyclopropyl]-penta-2,4-dienoic acid. This standard compound is described in U.S. Pat. No. 6,114,533.
(§4) Table 1 discloses the activity of certain exemplary tetrahydronaphthale compounds of the invention in the above-described RXR receptor transactivation and binding assays. […] The transactivation data pertaining to the activation of RXR receptors were obtained in the holoreceptor assay.
as §2

RXRβ [3] = biological target: T1, RXRβ; test: holoreceptor transactivation assay; type: cell-based; settings: for pEC50: holoreceptor assay; for Transactivation % Efficiency RXRβ: efficacy as percentage compared to the standard compound
Source text: as §1, §3, §4, §2

RXRα [4] = biological target: T2, RXRα; test: holoreceptor transactivation assay; type: cell-based; settings: for Transactivation % Efficiency RXRα: efficacy as percentage compared to the standard compound; for pEC50: holoreceptor assay
Source text: as §1, §3, §4, §2

[5] = tested on: female diabetic db/db mice; test: serum glucose, triglyceride and thyroxine levels in diabetic db/db mice; type: in vivo; settings: for Glucose / Triglycerides / T4: db/db mice; for T4: Day 7
Source text: An assay described below tests the effect of compounds of the invention on serum glucose, tryglyceride and thyroxine levels in female 9-10 weeks old db/db mice.
Female diabetic db/db (9-10 weeks old) mice were maintained on standard laboratory food and treated by oral gavage with vehicle (corn oil), standard compound (2E, 4E, 1′S, 2S)-3-methyl-5-[2′-methyl-2′-(5,5,8,8-tetramethyl-5,6,7,8-tetrahydro-naphthalen-2-yl)-cyclopropyl]-penta-2,4-dienoic acid ([…]) daily for seven days at 8:00 AM. Blood samples (70 μl) were taken by orbital bleeding at 11:00 AM on day 0 (pre-treatment), day 3, and day 6. On day 7, a blood sample (700 μl) was taken at 11:00 AM and the animals were sacrificed. Glucose, triglyceride and thyroxine (T4) levels were determined on a Boehringer Manheim Hatachi Clinical Chemistry Analyzer using standard protocols provided by the manufacturer and reagents that were supplied in commercially available kits (glucose and T4: Boehringer Manheim; triglycerides: Roche Diagnostics). Seven animals were treated in each group.

[6] = Day 0 (pre-treatment), 4 mg/kg oral gavage daily
[7] = Day 3, 3 h, 4 mg/kg oral gavage daily
[8] = Day 6, 3 h, 4 mg/kg oral gavage daily
[9] = Day 0 (pre-treatment), 50 mg/kg oral gavage daily
[10] = Day 3, 3 h, 50 mg/kg oral gavage daily
[11] = Day 6, 3 h, 50 mg/kg oral gavage daily

SMILES	pKi (RXRβ [1])	pKi (RXRα [2])	Transactivation % Efficiency RXRγ (RXRγ) [%]	pEC50 (RXRγ)	pEC50 (RXRβ [3])	Transactivation % Efficiency RXRα (RXRα [4]) [%]	pEC50 (RXRα [4])	Transactivation % Efficiency RXRβ (RXRβ [3]) [%]	further results
CCOC[C@H]1[C@@H](/C=C/C(C)=C/C(=O)O)C1(C)c1ccc2c(c1)C(C)(C)CCC2(C)C (stereo in doubt) [Compound 21b, (−)-(1R, 2S, 3S)-5-[3-Ethoxymethyl-2-methyl-2-(5,5,8,8-tetramethyl-5,6,7,8-tetrahydro-naphthalen-2-yl)-cyclopropyl]-3-methyl-penta-2E,4E-dienoic acid]	6.64	7.77	34	7.36	< 6.00	41	7.55	–	–
COCC1[C@@H](/C=C/C(C)=C/C(=O)O)C1(C)c1cc(C(C)C)cc(C(C)C)c1 (stereo in doubt) [Compound 29, (−)-(1R, 2S, 3S)-5-[3-Methoxymethyl-2-methyl-2-(3,5-diisopropyl-phenyl)-cyclopropyl]-3-methyl-penta-2E,4E-dienoic acid]	7.31	7.96	35	7.80	7.33	24	8.30	34	–
COC[C@@H]1[C@@H](/C=C/C(C)=C/C(=O)O)C1(C)c1ccc2c(c1)C(C)(C)CCC2(C)C (stereo in doubt) [Compound 23a, (−)-(1R, 2S, 3R)-5-[3-Methoxymethyl-2-methyl-2-(5,5,8,8-tetramethyl-5,6,7,8-tetrahydro-naphthalen-2-yl)-cyclopropyl]-3-methyl-penta-2E,4E-dienoic acid]	6.73	7.74	9	7.22	6.26	9	7.57	9	–
CC(/C=C/[C@@H]1C[C@]1(C)c1ccc2c(c1)C(C)(C)CCC2(C)C)=C\C(=O)O [Standard compound, (2E, 4E, 1′S, 2′S)-3-methyl-5-[2′-methyl-2′-(5,5,8,8-tetramethyl-5,6,7,8-tetrahydro-naphthalen-2-yl)-cyclopropyl]-penta-2,4-dienoic acid]	–	–	–	–	–	–	–	–	Glucose [5, 6]: 423 ± 57 mg/dL; Triglycerides [5, 6]: 300 ± 76 mg/dL; Glucose [5, 7]: 315 ± 105 mg/dL; Triglycerides [5, 7]: 219 ± 80 mg/dL; Glucose [5, 8]: 268 ± 242 mg/dL; Triglycerides [5, 8]: 117 ± 22 mg/dL; T4 ([5]; 4 mg/kg oral gavage daily): 1.1 ± 0.2 µg/dL; effect on serum thyroxine levels (in words) ([5]; diabetic mammals): undesirable side effect of reducing serum thyroxine levels
COCC1[C@@H](/C=C/C(C)=C/C(=O)O)C1(C)c1cc(C(C)C)cc(C(C)C)c1 (stereo in doubt) [Compound 31a, (−)-(1R, 2S, 3R)-5-[3-Methoxymethyl-2-methyl-2-(3,5-diisopropyl-phenyl)-cyclopropyl]-3-methyl-penta-2E,4E-dienoic acid]	7.60	8.12	101	8.44	7.77	104	8.57	90	–
CCOC[C@@H]1[C@@H](/C=C/C(C)=C/C(=O)O)C1(C)c1ccc2c(c1)C(C)(C)CCC2(C)C (stereo in doubt) [Compound 23b, (−)-(1R, 2S, 3R)-5-[3-Ethoxymethyl-2-methyl-2-(5,5,8,8-tetramethyl-5,6,7,8-tetrahydro-naphthalen-2-yl)-cyclopropyl]-3-methyl-penta-2E,4E-dienoic acid]	6.92	7.57	–	–	–	–	–	–	–
COC[C@H]1[C@@H](/C=C/C(C)=C/C(=O)O)[C@@]1(C)c1ccc2c(c1)C(C)(C)CCC2(C)C (stereo in doubt) [Compound 21a, (−)-(1R, 2S, 3 S)-5-[3-Methoxymethyl-2-methyl-2-(5,5,8,8-tetramethyl-5,6,7,8-tetrahydro-naphthalen-2-yl)-cyclopropyl]-3-methyl-penta-2E,4E-dienoic acid]	7.32	8.30	41	8.22	7.44	39	8.40	38	Glucose [5, 9]: 445 ± 66 mg/dL; Triglycerides [5, 9]: 271 ± 80 mg/dL; Glucose [5, 10]: 339 ± 194 mg/dL; Triglycerides [5, 10]: 130 ± 71 mg/dL; Glucose [5, 11]: 314 ± 196 mg/dL; Triglycerides [5, 11]: 180 ± 63 mg/dL; T4 ([5]; 50 mg/kg oral gavage daily): 4.2 ± 0.3 µg/dL
